Values quoted from earlier work as cited in patent US5084274A, “Inhibition of arterial thrombotic occlusion or thromboembolism” (Scripps Clinic and Research Foundation, priority 1987, dated 1992).

Test system: acute arterial thrombosis
Conditions: used alone or in combination

In the case of heparin, the “Response of acute complex arterial thrombosis (in words)” value is given as “unresponsive”.
